Several values for one entry are separate records, joined by “and”; a condition that tells them apart may be missing. Identical values can stand only once. Inconclusive results and toxic doses are left out.
Test system: B6C3F1 mice, ip Sarcoma M5076, median survival T/C
Experiment: NCI In Vivo Anticancer Drug Screen. Data for tumor model Sarcoma M5076 (intraperitoneal) in B6C3F1 mice
Conditions: endpoint: median survival time, schedule: Q04DX004 (ip), higher = longer survival
Method in brief: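 Antitumour effect is judged in tumour-bearing mice by comparing survival after compound dosing against vehicle-only animals, reported as T/C.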

[1] = dose: 25.0 mg/kg/injection, vehicle: saline with Tween-80
[2] = dose: 50.0 mg/kg/injection, vehicle: saline with Tween-80
[3] = dose: 100.0 mg/kg/injection, vehicle: saline with Tween-80
[4] = dose: 12.5 mg/kg/injection, vehicle: saline with Tween-80

## O=C(CN1CCOCC1)Nc1nc(-c2ccc(Cl)cc2)cs1
dose: 6.25 mg/kg/injection, vehicle: DMSO
  T/C: 100 % of control
dose: 12.5 mg/kg/injection, vehicle: DMSO
  T/C: 93 % of control
dose: 25.0 mg/kg/injection, vehicle: DMSO
  T/C: 121 % of control
[1]
  T/C: 112 % of control
dose: 50.0 mg/kg/injection, vehicle: DMSO
  T/C: 89 % of control
[2]
  T/C: 92 % of control
dose: 100.0 mg/kg/injection, vehicle: DMSO
  T/C: 87 % of control and 92 % of control
[3]
  T/C: 91 % of control
dose: 200.0 mg/kg/injection, vehicle: saline with Tween-80
  T/C: 98 % of control
dose: 400.0 mg/kg/injection, vehicle: saline with Tween-80
  T/C: 105 % of control

## O=c1oc2c(O)c(O)cc3c(=O)oc4c(O)c(O)cc1c4c23
dose: 75.0 mg/kg/injection, vehicle: Klucel (hydroxypropylcellulose) (HPC)
  T/C: 123 % of control
dose: 150.0 mg/kg/injection, vehicle: Klucel (hydroxypropylcellulose) (HPC)
  T/C: 115 % of control
dose: 300.0 mg/kg/injection, vehicle: Klucel (hydroxypropylcellulose) (HPC)
  T/C: 120 % of control
dose: 600.0 mg/kg/injection, vehicle: Klucel (hydroxypropylcellulose) (HPC)
  T/C: 111 % of control
dose: 1200.0 mg/kg/injection, vehicle: Klucel (hydroxypropylcellulose) (HPC)
  T/C: 108 % of control

## N[C@@H](Cc1ccc(N(CCCl)CCCl)cc1)C(=O)O
dose: 0.5 mg/kg/injection, vehicle: saline with Tween-80
  T/C: 124 % of control
dose: 2.0 mg/kg/injection, vehicle: saline with Tween-80
  T/C: 188 % of control
dose: 2.0 mg/kg/injection, vehicle: saline
  T/C: 151 % of control
dose: 4.0 mg/kg/injection, vehicle: saline with Tween-80
  T/C: 213 % of control and 221 % of control
dose: 4.0 mg/kg/injection, vehicle: saline
  T/C: 172 % of control
dose: 8.0 mg/kg/injection, vehicle: saline with Tween-80
  T/C: 251 % of control
dose: 8.0 mg/kg/injection, vehicle: saline
  T/C: 251 % of control

## CC1/C=C/C=C/CC/C=C/C=C/C=C/C=C/C(OC2OC(C)C(O)C(N)C2O)CC2OC(CC(O)C(O)CCC(O)CC(O)CC(O)CC(=O)OC(C)C(C)C1O)CC(O)C2C(=O)O (stereo not given)
dose: 6.25 mg/kg/injection, vehicle: saline with Tween-80
  T/C: 122 % of control
[4]
  T/C: 117 % of control
[1]
  T/C: 118 % of control and 122 % of control
[2]
  T/C: 96 % of control and 97 % of control
[3]
  T/C: 96 % of control and 107 % of control

## CN(C)[C@@H]1C(=O)C(C(=O)NCN2CCN(C(=N)N=C(N)N)CC2)=C(O)[C@@]2(O)C(=O)C3=C(O)c4c(O)cccc4[C@@](C)(O)[C@H]3C[C@@H]12
dose: 0.31 mg/kg/injection, vehicle: saline
  T/C: 105 % of control
dose: 0.62 mg/kg/injection, vehicle: saline
  T/C: 102 % of control
dose: 1.25 mg/kg/injection, vehicle: saline
  T/C: 102 % of control
dose: 1.8 mg/kg/injection, vehicle: suspension in saline
  T/C: 94 % of control
dose: 2.5 mg/kg/injection, vehicle: saline
  T/C: 95 % of control
dose: 3.0 mg/kg/injection, vehicle: suspension in saline
  T/C: 90 % of control
dose: 5.0 mg/kg/injection, vehicle: saline
  T/C: 106 % of control
dose: 5.0 mg/kg/injection, vehicle: suspension in saline
  T/C: 93 % of control
dose: 8.33 mg/kg/injection, vehicle: suspension in saline
  T/C: 91 % of control
dose: 13.88 mg/kg/injection, vehicle: suspension in saline
  T/C: 94 % of control

## CSc1c(N(C)C)c(=O)c1=S
[4]
  T/C: 102 % of control
[1]
  T/C: 103 % of control
[2]
  T/C: 98 % of control
[3]
  T/C: 93 % of control

## Cc1ccccc1C1C(C#N)C(=O)NC(=O)C1C#N (stereo not given)
dose: 50.0 mg/kg/injection, vehicle: Klucel (hydroxypropylcellulose) (HPC)
  T/C: 102 % of control
dose: 100.0 mg/kg/injection, vehicle: Klucel (hydroxypropylcellulose) (HPC)
  T/C: 105 % of control
dose: 200.0 mg/kg/injection, vehicle: Klucel (hydroxypropylcellulose) (HPC)
  T/C: 102 % of control
dose: 400.0 mg/kg/injection, vehicle: Klucel (hydroxypropylcellulose) (HPC)
  T/C: 98 % of control

From PubChem BioAssay AID292 (DTP/NCI, 2004)
